In patent US20240299414A1, “SUBCUTANEOUS OR INTRAMUSCULAR INJECTION FORMULATIONS OF ILOPROST” (EICOS SCIENCES, INC., priority 2020, published 2024):

Legend:
[1] = system: symptomatic Raynaud's Phenomenon attacks in subjects with Systemic Sclerosis; test: Multicenter double-blind randomized placebo-controlled study of intravenous iloprost, efficacy by ePRO diary; format: in vivo, human; details: for Subgroup comparison of prior vs after, LS mean difference in change (SE) of treatment difference: randomized prior to vs after 3 Jun. 2019
Excerpt: This was a multicenter, double-blind, randomized, placebo-controlled study to provide an initial evaluation of the effect of iloprost on the symptomatic relief of RP attacks in subjects with SSc. As a pilot study, it was not powered to provide a definitive estimate of the effect of iloprost. Importantly, this study tested the feasibility of collecting the study endpoints and logistics of study operations that included, among other things, an electronic patient-reported outcomes (ePRO) diary for the evaluation of subject response to the treatment, as well as the infusion workflow for this multiday treatment. Subjects were allowed to continue receiving stable standard of care therapies for the management of symptomatic RP (e.g., calcium channel blockers, angiotensin-converting enzyme inhibitors, statins, fluoxetine, and low-dose acetylsalicylic acid) or may have participated without the use of background standard of care therapies. The study consisted of an up to 30-day screening period during which subjects completed a daily ePRO diary to record information regarding all symptomatic RP attacks (e.g., severity of symptoms, duration, and hand function). […] The baseline ePRO diary completion period may have been extended beyond 10 days in order to accommodate the preferred Monday through Friday dosing schedule. The ePRO symptomatic RP attack data from this time period were used for the calculation of the baseline frequency of symptomatic RP attacks. […] Randomization was stratified based on the use of phosphodiesterase inhibitors at screening. Study drug administration began on Day 1, and subjects received study drug for 5 consecutive days (e.g., Monday through Friday) as an IV infusion over 6 hours each day via a peripheral line (NovaCath™ Integrated IV Catheter System) or a peripherally inserted central catheter using an infusion pump. […] On Day 1, study drug was initiated at a starting dose of 0.5 ng/kg/min, and dose increases occurred every 30 minutes (±5 minutes) in increments of 0.5 ng/kg/min up to 2.0 ng/kg/min or the individual tolerated dose. If dose-limiting adverse events (e.g., headache, flushing, jaw pain, myalgia, nausea, or vomiting) occurred that could not be tolerated by the subject, or if the subject experienced symptomatic hypotension, then the dose was reduced in a step-wise manner by 0.5 ng/kg/min every 30 minutes (±5 minutes) until a tolerated dose was determined or the infusion was stopped until the symptoms resolved at which point the study drug was reinitiated at a previously tolerated dose. If symptomatic hypotension or a dose-limiting adverse event occurred during administration of iloprost at the starting dose (i.e., 0.5 ng/kg/min), the infusion was reduced to 0.25 ng/kg/min. […] Blood pressure and heart rate were monitored 15 minutes (±5 minutes) prior to and after all dose changes. The maximum tolerated dose was maintained for the remaining 6-hour daily period. At the end of the 6-hour infusion period, the dose was stopped. Subjects were to be monitored for up to 1 hour after completion of study drug infusion (i.e., vital signs were obtained 15 minutes [+5 minutes] and 1 hour [+15 minutes] after completion of the infusion). […] Vital signs were measured prior to study drug administration and at 15 minutes (±5 minutes) prior to and after all dose changes during the infusion. Additionally, vital signs were monitored at 15 minutes (±5 minutes) and 1 hour (±15 minutes) after completion of the 6-hour infusion. Subjects were contacted via telephone on Day 8 to ensure they resumed completion of the daily ePRO diary; subjects completed the ePRO diary from Day 8 through Day 21. On Day 22, subjects returned to the clinic for post-treatment evaluations. A follow-up visit occurred 30 days after the last administration of study drug (Day 35). Symptomatic Raynaud's Phenomenon attacks: […] The attack was considered over when the color changed back to pre-attack color (normal) and the symptoms returned to the subject's pre-attack level. […]

[2] = Heat exposure study (sterilization cycles); format: physicochemical; details: pH about 8.0-8.1 versus about 7.0-7.2; light and heat exposure studies
Method: Approximately 200 mL of the prepared formulation was filtered through a Millipak 200, 0.22μ filter for light exposure study and heat exposure study (100 mL for each study).
Heat Exposure Study: Approximately 1.1 mL of formulation was placed each into 40 clean 2 cc vials and the vials were capped with 13 mm caps. One set of 20 vials were wrapped with autoclave tape, placed into an autoclave bag and labeled as B1. Another set of 20 vials were wrapped with autoclave tape, placed into an autoclave bag and labeled as B2. All vials were exposed through one sterilization cycle at 121° C. for approximately 30 minutes, then B1 vials were analyzed for pH and assayed by HPLC. The B2 vials were then exposed to a second sterilization cycle at ≥121° C. for ≥15 minutes. The B2 vials were analyzed for pH and assayed by HPLC for iloprost and impurities.

[3] = baseline to double-blind endpoint
[4] = subgroup randomized after 3 Jun. 2019, N = 9
[5] = subgroup randomized prior to 3 Jun. 2019, n = 8

CC#CCC(C)[C@H](O)/C=C/[C@@H]1[C@H]2C/C(=C/CCCC(=O)O)C[C@H]2C[C@H]1O (stereo partly drawn) [Iloprost, (5E)-5-[(3aS,4R,5R,6aS)-5-hydroxy-4-[(E,3S)-3-hydroxy-4-methyloct-1-en-6-ynyl]-3,3a,4,5,6,6a-hexahydro-1H-pentalen-2-ylidene]pentanoic acid]
Average overall severity of symptomatic RP attacks, LS mean difference in change vs placebo (SE) ([1]; 11-point NRS): −0.47 (0.604)
Average overall severity of symptomatic RP attacks, Double-blind endpoint, Mean (SD) ([1]; 11-point NRS, Days 8 to 21, N = 17): 3.39 (2.169)
Change from baseline in average overall severity of symptomatic RP attacks, LS mean (SE) ([1]; 11-point NRS, N = 17): −2.12 (0.439)
Average overall severity of symptomatic RP attacks, Baseline, Mean (SD) ([1]; 11-point NRS, before treatment, N = 17): 5.30 (1.818)
Change from baseline in weekly frequency of symptomatic RP attacks, LS mean (SE) ([1]; ANCOVA, baseline to double-blind endpoint, N = 17): −15.09 (2.961)
Weekly frequency of symptomatic RP attacks, LS mean difference in change vs placebo (SE) ([1]; ANCOVA, iloprost vs placebo, N = 17 per group): −0.77 (4.047)
Average weekly duration of symptomatic RP attacks, Double-blind endpoint, Mean (SD) ([1]; Days 8 to 21, N = 17): 345.82 (402.713) minutes
Weekly frequency of symptomatic RP attacks, Double-blind endpoint, Mean (SD) ([1]; Days 8 to 21 after IV infusion 6 h/day for 5 days, up to 2.0 ng/kg/min, N = 17): 23.57 (14.578)
Change from baseline in average weekly duration of symptomatic RP attacks, LS mean (SE) ([1]; N = 17): −267.49 (78.273) minutes
Difference in change in weekly frequency of symptomatic RP attacks compared to placebo, significance ([1]; all analytical measures): not statistically significant
Weekly frequency of symptomatic RP attacks, Baseline, Mean (SD) ([1]; baseline ePRO diary period (10 to 25 days) before treatment, N = 17): 37.05 (18.643)
Change in average Raynaud's Condition Score, difference compared to placebo [1, 3]: not statistically significant
Change in average worst symptoms (pain, numbness, tingling, discomfort) associated with symptomatic RP, difference compared to placebo [1, 3]: not statistically significant
Subject assessment of overall improvement using PGI-S and PGI-C, difference compared to placebo [1, 3]: not statistically significant
Average weekly duration of symptomatic RP attacks, Baseline, Mean (SD) ([1]; before treatment, N = 17): 586.97 (584.577) minutes
Average weekly duration of symptomatic RP attacks, LS mean difference in change vs placebo (SE) ([1]; iloprost vs placebo): −83.89 (107.728) minutes
Subgroup comparison of prior vs after, LS mean difference in change (SE) of treatment difference [1]: −6.91 (8.121)
Subgroup comparison of prior vs after, LS mean difference in change (SE) of treatment difference ([1]; listed as iloprost): -6.91 (8.121)
Weekly frequency of symptomatic RP attacks, LS mean difference in change vs placebo (SE) ([1]; subgroup randomized after 3 Jun. 2019): 2.04 (5.453)
Change from baseline in weekly frequency of symptomatic RP attacks, LS mean (SE) [1, 4]: −15.38 (4.082)
Weekly frequency of symptomatic RP attacks, Double-blind endpoint, Mean (SD) [1, 4]: 23.73 (17.337)
Weekly frequency of symptomatic RP attacks, Baseline, Mean (SD) ([1]; subgroup randomized after 3 Jun. 2019, N = 9, before treatment): 37.23 (19.269)
Weekly frequency of symptomatic RP attacks, LS mean difference in change vs placebo (SE) ([1]; subgroup randomized prior to 3 Jun. 2019): −4.87 (6.074)
Weekly frequency of symptomatic RP attacks, LS mean difference in change vs placebo (SE) ([1]; subgroup randomized prior to 3 Jun. 2019, listed as iloprost): -4.87 (6.074)
Change from baseline in weekly frequency of symptomatic RP attacks, LS mean (SE) [1, 5]: −14.83 (4.180)
Weekly frequency of symptomatic RP attacks, Double-blind endpoint, Mean (SD) [1, 5]: 23.39 (11.923)
Weekly frequency of symptomatic RP attacks, Baseline, Mean (SD) ([1]; subgroup randomized prior to 3 Jun. 2019, n = 8, before treatment): 36.85 (19.235)
stability of iloprost versus pH [2]: more stable at higher pH of about 8.0-8.1
